Measured values reported in article PMC8998746, “Effect of Clinically Used Microtubule Targeting Drugs on Viral Infection and Transport Function” (International Journal of Molecular Sciences, 2022).
Like-named read-outs stand apart in the source and are kept apart here.

Key:
Vero cells [1] = assay: Cell viability, CellTiter 96 assay, Vero; conditions: 24 h treatment
[2] = tested on: KBP (kinesin) movement along MTs in AHRTG cells; assay: In cell motility assay with kinesin binding peptide probe (KBP); assay type: cell-based, human; conditions: for KBP mean displacement, decrease / KBP mean velocity, decrease / KBP mean movement / proportion of transported particles (TM/CM), reduction: AHRTG cells, NOC 2.5 µM, PTX 10 µM; for KBP mean displacement, decrease / KBP mean velocity, decrease: vs control; for KBP mean movement / proportion of transported particles (TM/CM), reduction: vs untreated
Vero E6 cells [3] = assay: Cell viability, CellTiter 96 assay, Vero E6; conditions: Vero E6, 24 h treatment
Huh-7 Lunet C3 cells [4] = assay: Cell viability, CellTiter 96 assay, Huh-7 Lunet C3; conditions: Huh-7 Lunet C3, 24 h treatment, over 80% cell viability
Vero E6 cells [5] = conditions: African green monkey, 24 h
Vero cells [6] = conditions: African green monkey, 24 h
Huh-7 Lunet C3 cells [7] = conditions: human, 24 h
ASFV BPP30GFP = assay type: cell-based, African swine fever virus
VACV vtag2GFP = assay type: cell-based, vaccinia virus
[8] = tested on: VSV-G-luc (vesicular stomatitis virus); assay type: cell-based
[9] = tested on: DBP (dynein) movement along MTs in AHRTG cells; assay: In cell motility assay with dynein binding peptide probe (DBP); assay type: cell-based, human; conditions: for DBP mean displacement, decrease / DBP mean velocity, decrease / DBP mean movement / proportion of transported particles (TM/CM), reduction: NOC 2.5 µM, PTX 10 µM; for DBP mean displacement, decrease / DBP mean velocity, decrease: vs control; for DBP mean movement / proportion of transported particles (TM/CM), reduction: vs untreated
[10] = tested on: SARS-CoV-2 strain NL/2020; assay: microbe, parasite or virus in culture; assay type: cell-based; conditions: Severe acute respiratory syndrome coronavirus 2; A549-ACE2 cells, 1 h pretreatment, 48 h, optimal dose (PPT 100 nM); read-out: inhibition of SARS-CoV-2 infection

Row | SMILES | highest non-toxic concentration (Vero cells [1]) | highest non-toxic concentration (Vero E6 cells [3]) | highest non-toxic concentration (Huh-7 Lunet C3 cells [4]) | highest non-toxic concentration (Vero E6 cells [5]) | highest non-toxic concentration (Vero cells [6]) | highest non-toxic concentration (Huh-7 Lunet C3 cells [7]) | other results
1 | CCCSc1ccc2nc(NC(=O)OC)[nH]c2c1 [ABZ, albendazole] | 25 nM | 25 nM | 1 nM | – | – | – | effect on KBP movement (TM/CM ratio) [2]: very low effect on motion; effect on KBP particle displacement [2]: no significant modification; effect on KBP particle velocity [2]: no significant modification
2 | COc1cc2c(c(OC)c1OC)-c1ccc(OC)c(=O)cc1[C@@H](NC(C)=O)CC2 [COL, colchicine] | 75 nM | 25 nM | 0.2 nM | – | – | – | –
3 | CO[C@H]1C(=O)[C@]2(C)[C@@H](OC)C[C@H]3OC[C@@]3(OC(C)=O)[C@H]2[C@H](OC(=O)c2ccccc2)[C@]2(O)C[C@H](OC(=O)[C@H](O)[C@@H](NC(=O)OC(C)(C)C)c3ccccc3)C(C)=C1C2(C)C [CTX, cabazitaxel] | 10 nM | 25 nM | 0.01 nM | – | – | – | effect on KBP movement (TM/CM ratio) [2]: affected particle motion
4 | CC(=O)O[C@@]12CO[C@@H]1C[C@H](O)[C@@]1(C)C(=O)[C@H](O)C3=C(C)[C@@H](OC(=O)[C@H](O)[C@@H](NC(=O)OC(C)(C)C)c4ccccc4)C[C@@](O)([C@@H](OC(=O)c4ccccc4)[C@H]21)C3(C)C [DTX, docetaxel] | 10 nM | 10 nM | 0.03 nM | – | – | – | –
5 | C/C(=C\c1csc(C)n1)[C@@H]1C[C@@H]2O[C@]2(C)CCC[C@H](C)[C@H](O)[C@@H](C)C(=O)C(C)(C)[C@@H](O)CC(=O)N1 [EPO, ixabepilone] | – | – | – | 25 nM | 25 nM | 0.05 nM | –
6 | C=C1C[C@@H]2CC[C@@]34C[C@H]5O[C@H]6[C@@H](O3)[C@H]3O[C@H](CC[C@@H]3O[C@H]6[C@H]5O4)CC(=O)C[C@@H]3[C@@H](OC)[C@@H](C[C@H](O)CN)O[C@H]3C[C@H]3O[C@@H](CC[C@@H]1O2)C[C@@H](C)C3=C [ERIB, eribulin] | – | – | – | 10 nM | 100 nM | 0.01 nM | inhibition of ASFV early infection (BPP30GFP) (ASFV BPP30GFP): up to 50%
7 | COC(=O)Nc1nc2ccc(Sc3ccccc3)cc2[nH]1 [FBZ, febendazole] | – | – | – | 50 nM | 75 nM | 1 nM | reduction of VACV (vtag2GFP) viral infection (VACV vtag2GFP): 40%; inhibition of ASFV early infection (BPP30GFP) (ASFV BPP30GFP): 30%
8 | COc1cc2cc(c1Cl)N(C)C(=O)C[C@H](OC(=O)[C@H](C)N(C)C(C)=O)[C@]1(C)O[C@H]1[C@H](C)[C@@H]1C[C@@](O)(NC(=O)O1)[C@H](OC)/C=C/C=C(\C)C2 [MAYT, maytansine] | 25 nM | 25 nM | 0.1 nM | – | – | – | effect on KBP movement (TM/CM ratio) [2]: significant reduction of the TM/CM ratio; decrease of VSV infection [8]: 40%
9 | COC(=O)Nc1nc2ccc(C(=O)c3ccccc3)cc2[nH]1 [MBZ, mebendazole] | – | – | – | 10 nM | 10 nM | 5 nM | concentration at which the DBP TM/CM ratio was affected ([9]; dose-response 0.1-10 μM MBZ): > 2.5 µM
10 | COC(=O)Nc1nc2ccc(C(=O)c3cccs3)cc2[nH]1 [NOC, nocodazole] | – | – | – | – | – | – | KBP mean displacement, decrease [2]: 54%; KBP mean velocity, decrease [2]: 36%; KBP mean movement / proportion of transported particles (TM/CM), reduction [2]: 68%; DBP mean displacement, decrease [9]: 44%; DBP mean velocity, decrease [9]: 30%; DBP mean movement / proportion of transported particles (TM/CM), reduction [9]: 60%
11 | COc1ccc2c(c1OC)C(=O)O[C@@H]2[C@H]1c2c(cc3c(c2OC)OCO3)CCN1C [NOS, noscapine] | – | – | – | 100 nM | 100 nM | 100 nM | effect on KBP movement (TM/CM ratio) [2]: no effect on KBP movement
12 | CC(C)(C)c1[nH]cnc1/C=c1\[nH]c(=O)/c(=C/c2ccccc2)[nH]c1=O [PLIN, plinabulin] | 25 nM | 25 nM | 0.5 nM | – | – | – | reduction of VACV (vtag2GFP) viral infection (VACV vtag2GFP): 50%; inhibition of ASFV early infection (BPP30GFP) (ASFV BPP30GFP): 30%
13 | COc1cc([C@@H]2c3cc4c(cc3[C@H](O)[C@H]3COC(=O)[C@H]23)OCO4)cc(OC)c1OC [PPT, podophylotoxin] | 50 nM | 50 nM | 0.2 nM | – | – | – | inhibition at 0.1 µM [10]: 60%
14 | CC(=O)O[C@H]1C(=O)[C@@]2(C)[C@H]([C@H](OC(=O)c3ccccc3)[C@]3(O)C[C@H](OC(=O)[C@H](O)[C@@H](NC(=O)c4ccccc4)c4ccccc4)C(C)=C1C3(C)C)[C@]1(OC(C)=O)CO[C@@H]1C[C@@H]2O [PTX, paclitaxel] | – | – | – | 25 nM | 25 nM | 5 nM | effect on KBP particle displacement [2]: significantly decreased the displacement of particles; KBP mean displacement, decrease [2]: 16%; KBP mean velocity, decrease [2]: no meaningful changes; KBP mean movement / proportion of transported particles (TM/CM), reduction [2]: 17%; DBP mean displacement, decrease [9]: no alterations; DBP mean velocity, decrease [9]: no alterations; DBP mean movement / proportion of transported particles (TM/CM), reduction [9]: 27%
15 | CC[C@]1(O)C[C@@H]2CN(CCc3c([nH]c4ccccc34)[C@@](C(=O)OC)(c3cc4c(cc3OC)N(C)[C@H]3[C@@](O)(C(=O)OC)[C@H](OC(C)=O)[C@]5(CC)C=CCN6CC[C@]43[C@@H]65)C2)C1 [VBL, vinblastine] | – | – | – | 5 nM | 25 nM | 0.05 nM | decrease of VSV infection [8]: 90%; inhibition of ASFV early infection (BPP30GFP) (ASFV BPP30GFP): up to 50%
16 | CC[C@]1(O)C[C@H]2CN(CCc3c([nH]c4ccccc34)[C@@](C(=O)OC)(c3cc4c(cc3OC)N(C=O)[C@H]3[C@@](O)(C(=O)OC)[C@H](OC(C)=O)[C@]5(CC)C=CCN6CC[C@]43[C@@H]65)C2)C1 [VCR, vincristine] | – | – | – | 1 nM | 1 nM | 5 nM | –
17 | CC[C@]1(O)C[C@@H]2CN(CCc3c([nH]c4ccccc34)[C@@](C(=O)OC)(c3cc4c(cc3OC)N(C)[C@H]3[C@@](O)(C(N)=O)[C@H](O)[C@]5(CC)C=CCN6CC[C@]43[C@@H]65)C2)C1 [VDS, vindesine] | – | – | – | 100 nM | 100 nM | 0.02 nM | decrease of VSV infection [8]: 80%; inhibition of ASFV early infection (BPP30GFP) (ASFV BPP30GFP): up to 50%
